Experimental data taken from patent US20110256605A1, “CELLS WITH NON-NATURAL PHYSIOLOGIES DERIVED BY EXPRESSING LIGHT-POWERED PROTON PUMPS IN ONE OR MORE MEMBRANES” (The Regents of the University of California, a California …, priority 2010, published 2011).

Test system: E. coli flagellar motor / cellular pmf
Format: cell-based
Experimental: Cell culture. We expressed the SAR86 γ-proteobacterial PR-variant (Geneart, Inc) in E. coli cells (RP437 DE3 ΔcheY Cm^R) using a T7 based expression system (pET200, Kan^R, Invitrogen). Cells were grown in T broth (1% Tryptone, 0.5% NaCl) supplemented with kanamycin (25 μg/ml). In mid-log phase, PR expression was induced with 1 mM IPTG and the medium was supplemented with 10 μM ethanolic all-trans-retinal. Cells were collected in late log phase by gentle centrifugation (4500×g, 5 min) and carefully resuspended in motility medium (1 mM PBS (Ambion), 0.1 mM EDTA, pH 7.4). PR^+ denotes cells expressing proteorhodopsin, and PR^− denotes cells (RP437 DE3 ΔcheY Cm^R) without the PR plasmid. […] Unless otherwise noted, all experiments were done in glucose free motility medium and at room temperature.
Instrumentation. […]
To increase the accuracy of the flagellar rotation measurements, a tethered cell geometry was employed (FIG. 2A) which permitted the extended observation of the same bacterium in different illumination conditions. PR^+ cells were allowed to stick to the coverslip via a flagellum, and the angular rotation rate of cells was monitored (FIG. 2A). […]

Row | Structure (SMILES) | Effect on bacterial motility (100 μM, low oxygen cultures, not restored with 50 seconds of green illumination) | IC50 (without green light, azide 0 to 110 mM, read-out: Azide concentration at which pmf dropped to 50% of its original value) [mM]
1 | N#CC(C#N)=NNc1cccc(Cl)c1 [CCCP, carbonyl cyanide 3-chlorophenylhydrazone] | eliminated all bacterial motility | –
2 | [N-]=[N+]=[N-] [azide, sodium azide] | – | 55
